The target in this experiment is Prothrombin (Homo sapiens, UniProt P00734). Kind of experiment: Binding Affinity to Thrombin.

Compound `NC(N)c1ccc(CC(=O)C(=O)O)cc1` displayed an inhibition constant (Ki) of 620 nM.
`NC(N)c1ccccc1` registered a Ki of 300 nM.

For orientation: Ki means the dissociation constant of the complex between target and ligand, obtained from inhibition or displacement. Low values mean higher affinity, high ones lower affinity.

The record behind these values is ChEMBL document CHEMBL1135611, “Thrombin inhibition by novel benzamidine derivatives: a free-energy perturbation study” (J Med Chem, 2002).
